Patent USRE47689E1, “Compounds for treating spinal muscular atrophy” (PTC Therapeutics, Inc., priority 2011, dated 2019)

Tests used:
[1] = tested on: full length and Δ7 SMN2 mRNAs; assay: Endogenous SMN2 mRNA end-point semi-quantitative RT-PCR splicing assay in cultured cells; type: cell-based, human; settings: GM03813 Type 1 SMA patient fibroblasts, increasing concentrations, 24 hrs, agarose gel
Procedure: The endpoint reverse transcription-PCR splicing assay is used to visualize and quantify the levels of the full length and Δ7 SMN2 mRNAs in primary cells and cell lines containing the SMN2 gene treated with a test compound.
Protocol. GM03813 SMA patient cells (5,000 cells/well) are seeded in 200 μL of cell culture medium (DMEM plus 10% FBS) in 96-well flat-bottom plates and the plate is immediately swirled to ensure proper dispersal of cells, forming an even monolayer of cells. Cells are allowed to attach for at least 4-6 hrs. Test compounds are serially diluted 3.16-fold in 100% DMSO to generate a 7-point concentration curve. A solution of test compound (1 μL, 200× in DMSO) is added to each test well and 1 μL DMSO is added to each control well. The plate is incubated for 24 hrs in a cell culture incubator (37° C., 5% CO2, 100% relative humidity). The cells are then lysed in Cells-To-Ct lysis buffer and the lysate is stored at −80° C.
SMN FL and Δ7 mRNAs are identified using the following primers in Table 6. These primers hybridize to a nucleotide sequence in exon 6 (SMN Forward C, SEQ ID NO. 11) (nucleotide 43 to nucleotide 63) and exon 8 (SMN Reverse C, SEQ ID NO. 12) (nucleotide 51 to nucleotide 73) common to human SMN1 and SMN2 mRNAs. Since the SMA patient cells used in Example 4 contain only the SMN2 gene, RT-PCR can visualize and quantify only SMN2 full-length and SMN2 Δ7 mRNAs.
To synthesize cDNA, 5 μL of lysate, 4 μL of 5× iScript reaction mix, 1 μL of reverse transcriptase, and 10 μL of water are combined and incubated 5 min at 25° C. followed by 30 min at 42° C., followed by 5 min at 85° C. cDNA solution is stored at −20° C.
To perform endpoint PCR, 5 μL of cDNA, 0.2 μL of 100 μM forward primer, 0.2 μL of 100 μM reverse primer, and 22.5 μL of polymerase super mix are combined in a 96 well semiskirted PCR plate. PCR is carried out at the following temperatures for indicated time: Step 1: 94° C. (2 min), Step 2: 94° C. (30 sec), Step 3: 55° C. (30 sec), Step 4: 68° C. (1 min), then repeat Steps 2 to 4 for a total of 33 cycles, then hold at 4° C.
10 μL of each PCR sample is electrophoretically separated on a 2% agarose E-gel for 14 minutes stained with ds DNA staining reagents (e.g., ethidium bromide) and visualized using a gel imager.

[2] = tested on: SMN2 minigene (full length SMN2 minigene mRNA containing SMN2 exon 7); assay: SMN2 minigene mRNA splicing RT-qPCR assay in cultured cells; type: cell-based, human; settings: for exon 7 inclusion / SMN2mini FL mRNA relative to vehicle control: HEK293H cells with SMN2-A minigene; for exon 7 inclusion: relative to untreated cells; for SMN2mini FL mRNA relative to vehicle control: rising concentrations, 24 hr; for EC (1.5-fold): Homo sapiens, HEK293-H, HEK293H cells stably transfected with SMN2-A minigene, 24 hours, 7-point concentration curve, 1.5-fold relative to vehicle-treated cells, read-out: EC1.5x for production of full length SMN2 mRNA
In short: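 Full-length SMN2 minigene mRNA (exon 7 included), minigene-specific and not endogenous SMN, quantified by RT-qPCR multiplexed with GAPDH in stably transfected HEK293H cells after 24 h compound exposure at 37° C. Abundance from efficiency-corrected Ct, normalized to GAPDH and vehicle; EC1.5x reported as star bins.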

Compound	SMN2 FL mRNA [1]	SMN2 Δ7 mRNA [1]	exon 7 inclusion [2]	SMN2mini FL mRNA relative to vehicle control [2]	EC (1.5-fold) [2] [µM]
CC(C)NCCc1ccc2cc(-c3nc4c(Cl)cccc4s3)c(=O)oc2c1 [Cpd 35, 3-(4-chloro-1,3-benzothiazol-2-yl)-7-[2-(propan-2-ylamino)ethyl]-2H-chromen-2-one]	progressively more SMN2 FL mRNA	less SMN2 Δ7 mRNA	fully restored exon 7 inclusion relative to untreated cells	increased SMN2mini FL mRNA at low concentrations	0.3 to 1
CCN1CCN(c2ccc3cc(-c4cn5cc(C)nc(C)c5n4)c(=O)oc3c2)C[C@@H]1C [Cpd 626, 3-(6,8-dimethylimidazo[1,2-a]pyrazin-2-yl)-7-[(3S)-4-ethyl-3-methylpiperazin-1-yl]-2H-chromen-2-one]	progressively more SMN2 FL mRNA	less SMN2 Δ7 mRNA	fully restored exon 7 inclusion relative to untreated cells	increased SMN2mini FL mRNA at low concentrations	< 0.1
